Laboratory results from patent US6790447B1, “Peptides for treatment of autoimmune diseases” (priority 1994, dated 2004).

Tests used:
uveitis = assay: Uveitogenicity after immunization with the peptides; assay type: in vivo; details: after immunization of objects with the peptides
Text: Of these peptides B27PD and PDSAg are uveitogenic, i.e., after immunization of objects with the peptides they develop uveitis.

[1] = tested on: S-antigen-induced uveitis; assay: S-antigen-induced uveitis after oral administration of antigens (oral tolerance); assay type: in vivo, Lewis rats; details: induction with S-antigen; for clinical symptoms reduced to: oral administration, compared to group fed control protein (ovalbumin), peptides 200 μg, proteins 1 mg, three doses every other day; for uveitis reduced by (histological evaluation): oral feeding, compared to ovalbumin fed control groups
Text: (§1) Due to animal protection laws, the experiments were terminated three to four days after the last animals in the positive control groups diseased.
(§2) The histological evaluation consists of a grading of inflammatory signs in the tissue and destruction of the retina, the clinical grading refers to inflammatory signs of the conjunctiva and the anterior segment of the eye, which can be observed readily and are not necessarily correlated with the visual acuity.

IRBP induced uveitis = assay: IRBP-induced uveitis after oral administration of antigens (oral tolerance); assay type: in vivo, Lewis rats; details: induction with IRBP, oral feeding; for clinical symptoms / clinical score for uveitis reduced to: compared to maximal disease in PBS-fed group
Text: as §1, §2

Substance	uveitogenic properties (uveitis)	clinical symptoms reduced to [1] [%]	uveitis reduced by (histological evaluation) [1] [%]	clinical symptoms / clinical score for uveitis reduced to (IRBP induced uveitis) [%]	therapeutic properties (IRBP induced uveitis)
A-L-N-E-D-L-R-S-W-T-A-A-D-T (ALNEDLRSWTAADT) [B7PD, an irrelevant control peptide]	does not have any uveitogenic properties				
A-L-N-E-D-L-S-S-W-T-A-A-D-T (ALNEDLSSWTAADT) [B27PD, 14 mer peptide of the invention]	uveitogenic	16	57	75	
F-L-G-E-L-T-S-S-E-V-A-T-E-V (FLGELTSSEVATEV) [PDSAg]	uveitogenic	9	14		no therapeutic properties
IRBP: interphotoreceptor-retinoid-binding protein, retinal protein				25	
